The record followed here is patent publication US20150105252A1, “SUBSTITUTED PYRAZOLES AS HERBICIDES” (E I DU PONT DE NEMOURS AND COMPANY, priority 2013, published 2015).

One experiment relates to pigweed. Briefly: Test E preemergence. The class given is in vivo, Amaranthus retroflexus. Particulars: 21 days, scale 0 to 100. The text has this: (§1) Seeds of plant species selected from bermudagrass (Cynodon dactylon), Surinam grass (Brachiaria decumbens), crabgrass, large (large crabgrass, Digitaria sanguinalis), crabgrass, naked (naked crabgrass, Digitaria nuda), foxtail, green (green foxtail, Setaria viridis), johnsongrass (Sorghum halepense), kochia (Kochia scoparia), morningglory (pitted morningglory, Ipomoea lacunosa), nutsedge, purple (purple nutsedge, Cyperus rotundus), ragweed (common ragweed, Ambrosia elation), mustard, black (black mustard, Brassica nigra), guineagrass (Panicum maximum), dallisgrass (Paspalum dilatatum), barnyardgrass (Echinochloa crus-galli), sandbur (southern sandbur, Cenchrus echinatus), sowthistle (common sowthistle, Sonchus oleraceous), ryegrass, Italian (Italian ryegrass, Lolium multiflorum), signalgrass (broadleaf signalgrass, Brachiaria platyphylla), dayflower, VA (Virginia (VA) dayflower, Commelina virginica), bluegrass (annual bluegrass, Poa annua), quackgrass (Elytrigia repens), mallow (common mallow, Malva sylvestris), buckwheat, wild (wild buckwheat, Polygonum convolvulus), leafy spurge (Euphorbia esula), common chickweed (Stellaria media), wild poinsettia (Euphorbia heterophylla), pigweed, palmer (palmer pigweed, Amaranthus palmeri), and pigweed (redroot pigweed, Amaranthus retroflexus) were planted into a blend of loam soil and sand and treated preemergence with test chemicals formulated in a non-phytotoxic solvent mixture which included a surfactant.
(§2) Treated plants and controls were maintained in a greenhouse for 21 days, after which time all species were compared to controls and visually evaluated. Plant response ratings, summarized in Table E, are based on a scale of 0 to 100 where 0 is no effect and 100 is complete control. A dash (-) response means no test result.

In the next experiment the test system is Surinam grass. The experiment is described as follows: Test E preemergence. The class given is in vivo, Brachiaria decumbens. The note with it: 21 days, scale 0 to 100.
From the text: as §1, §2

A further experiment has as its system wild poinsettia. Briefly: Test F postemergence. Particulars: scale 0 to 100. It is filed as in vivo, Euphorbia heterophylla. From the text: Seeds of plant species selected from corn (Zea mays), soybean (Glycine max), velvetleaf (Abutilon theophrasti), lambsquarters (Chenopodium album), wild poinsettia (Euphorbia heterophylla), pigweed, palmer (palmer pigweed, Amaranthus palmeri), common waterhemp (Amaranthus rudis), surinam grass (Brachiaria decumbens), large crabgrass (Digitaria sanguinalis), crabgrass, Brazil (Brazilian crabgrass, Digitaria horizontalis), fall panicum (Panicum dichotomiflorum), giant foxtail (Setaria faberii), green foxtail (Setaria viridis), goosegrass (Eleusine indica), johnsongrass (Sorghum halepense), common ragweed (Ambrosia elation), barnyardgrass (Echinochloa crus-galli), southern sandbur (Cenchrus echinatus), arrowleaf sida (Sida rhombifolia), Italian ryegrass (Lolium multiflorum), dayflower, VA (Virginia (VA) dayflower, Commelina virginica), field bindweed (Convolvulus arvensis), cocklebur (common cocklebur, Xanthium strumarium), morningglory (Ipomoea coccinea), nightshade (eastern black nightshade, Solanum ptycanthum), kochia (Kochia scoparia), yellow nutsedge (Cyperus esculentus), and hairy beggarticks (Bidens pilosa), were planted into a silt loam soil and treated preemergence with test chemicals formulated in a non-phytotoxic solvent mixture which included a surfactant.
At the same time, plants from these crop and weed species and also horseweed (Canada horseweed, Conyza canadensis), smartweed (ladysthumb smartweed, Polygonum persicaria), waterhemp_RES1, (ALS & Triazine resistant common waterhemp, Amaranthus rudis), and waterhemp_RES2, (ALS & HPPD resistant common waterhemp, Amaranthus rudis) were treated with postemergence applications of test chemicals formulated in the same manner. Plants ranged in height from 2 to 18 cm for postemergence treatments (1- to 4-leaf stage). Treated plants and controls were maintained in a greenhouse for 14 to 21 days, after which time all species were compared to controls and visually evaluated. Plant response ratings, summarized in Table F, are based on a scale of 0 to 100 where 0 is no effect and 100 is complete control. A dash (-) response means no test result.

The subject of a further experiment is oat, wild. The experiment is described as follows: Test D preemergence. It is filed as in vivo, Avena fatua. The note with it: scale 0 to 100. From the text:
(§3) Seeds of plant species selected from bluegrass (annual bluegrass, Poa annua), blackgrass (Alopecurus myosuroides), canarygrass (littleseed canarygrass, Phalaris minor), chickweed (common chickweed, Stellaria media), galium (catchweed bedstraw, Galium aparine), bromegrass, downy (downy bromegrass, Bromus tectorum), field poppy (Papaver rhoeas), field violet (Viola arvensis), foxtail, green (green foxtail, Setaria viridis), deadnettle (henbit deadnettle, Lamium amplexicaule), ryegrass, Italian (Italian ryegrass, Lolium multiflorum), kochia (Kochia scoparia), lambsquarters (Chenopodium album), oilseed rape (Brassica napus), pigweed (redroot pigweed, Amaranthus retroflexus), chamomile (scentless chamomile, Matricaria inodora), speedwell (bird's-eye speedwell, Veronica persica), barley, spring (spring barley, Hordeum vulgare), wheat, spring (spring wheat, Triticum aestivum), buckwheat, wild (wild buckwheat, Polygonum convolvulus), mustard, wild (wild mustard, Sinapis arvensis), oat, wild (wild oat, Avena fatua), radish, wild (wild radish, Raphanus raphanistrum), windgrass (Apera spica-venti), Russian thistle (Salsola kali), barley, winter (winter barley, Hordeum vulgare), and wheat, winter (winter wheat, Triticum aestivum) were planted into a silt loam soil and treated preemergence with test chemicals formulated in a non-phytotoxic solvent mixture which included a surfactant.
(§4) At the same time, these species were planted in pots containing Redi-Earth® planting medium (Scotts Company, 14111 Scottslawn Road, Marysville, Ohio 43041) comprising spaghnum peat moss, vermiculite, wetting agent and starter nutrients and treated with postemergence applications of the test chemicals formulated in the same manner. Plants ranged in height from 2 to 18 cm (1- to 4-leaf stage). Treated plants and controls were maintained in a controlled growth environment for 14 to 21 days after which time all species were compared to controls and visually evaluated. Plant response ratings, summarized in Table D, are based on a scale of 0 to 100 where 0 is no effect and 100 is complete control. A dash (-) response means no test result.

Another experiment concerns ryegrass, Italian. The experiment is described as follows: Test D preemergence. It is filed as in vivo, Lolium multiflorum. The note with it: scale 0 to 100.
From the text: as §3, §4

For `CCc1cc(C(=O)NCC(F)(F)F)nn1Cc1ccnc(C(F)(F)F)c1` [Compound 78, 5-ethyl-N-(2,2,2-trifluoroethyl)-1-[[(2-trifluoromethyl)-4-pyridinyl]methyl]-1H-pyrazole-3-carboxamide], the “Plant response rating, Pigweed” value in the experiment on pigweed (16 g ai/ha), in the experiment on pigweed (31 g ai/ha), in the experiment on pigweed (62 g ai/ha), in the experiment with pigweed (125 g ai/ha) and in the experiment on pigweed (250 g ai/ha) was 100 in each case. For the same compound, the “Plant response rating, Surinam Grass” value in the experiment on Surinam grass (16 g ai/ha) worked out at 20; in the experiment with Surinam grass (31 g ai/ha) it was 80; with Surinam grass (62 g ai/ha), 90; in the experiment on Surinam grass (125 g ai/ha), 90; with Surinam grass (250 g ai/ha) it was 100. The “Plant response rating, Wild Poinsettia” value was found to be 25 with wild poinsettia (Postemergence, 31 g ai/ha); 70 with wild poinsettia (Postemergence, 125 g ai/ha); 80 with wild poinsettia (Postemergence, 250 g ai/ha); 50 in the experiment with wild poinsettia (postemergence, 62 g ai/ha); 90 with wild poinsettia (postemergence, 500 g ai/ha).
For `CCOc1cc(C(=O)NCC(F)(F)F)nn1Cc1ccnc(C(F)(F)F)c1` [Compound 104], the “Plant response rating, Pigweed” value in the experiment with pigweed (16 g ai/ha), in the experiment on pigweed (31 g ai/ha), in the experiment on pigweed (62 g ai/ha), with pigweed (125 g ai/ha) and with pigweed (250 g ai/ha) was 100 throughout. The “Plant response rating, Surinam Grass” value with Surinam grass (16 g ai/ha) worked out at 50; in the experiment with Surinam grass (31 g ai/ha), 75; in the experiment on Surinam grass (62 g ai/ha), 95; in the experiment with Surinam grass (125 g ai/ha), 100; with Surinam grass (250 g ai/ha), 100. Moreover, the “Plant response rating, Wild Poinsettia” value in the experiment on wild poinsettia (Postemergence, 31 g ai/ha) is given as 45; with wild poinsettia (Postemergence, 125 g ai/ha) it was 95; in the experiment with wild poinsettia (Postemergence, 250 g ai/ha), 90; in the experiment with wild poinsettia (postemergence, 62 g ai/ha) it was 60; in the experiment with wild poinsettia (postemergence, 500 g ai/ha), 100.
Regarding `CCCc1cc(C(=O)NCC(F)(F)F)nn1Cc1ccnc(C(F)(F)F)c1` [Compound 105], the “Plant response rating, Pigweed” value in the experiment with pigweed (16 g ai/ha), with pigweed (31 g ai/ha), in the experiment on pigweed (62 g ai/ha), in the experiment on pigweed (125 g ai/ha) and with pigweed (250 g ai/ha) was 100 throughout. Also, the “Plant response rating, Surinam Grass” value is reported as 35 in the experiment with Surinam grass (16 g ai/ha); 40 with Surinam grass (31 g ai/ha); 80 with Surinam grass (62 g ai/ha); 95 in the experiment on Surinam grass (125 g ai/ha); 100 in the experiment on Surinam grass (250 g ai/ha). Besides, the “Plant response rating, Wild Poinsettia” value in the experiment with wild poinsettia (Postemergence, 31 g ai/ha) was 40; in the experiment with wild poinsettia (Postemergence, 125 g ai/ha), 70; in the experiment with wild poinsettia (Postemergence, 250 g ai/ha) it was 100; in the experiment on wild poinsettia (postemergence, 62 g ai/ha) it was 50; in the experiment on wild poinsettia (postemergence, 500 g ai/ha), 100.
As to `CCCc1cc(C(=O)NCC(F)(F)F)nn1Cc1cc(C(F)(F)F)nn1C` [Compound 138], the “Plant response rating, Oat, Wild” value with oat, wild (62 g ai/ha) stood at 35; with oat, wild (125 g ai/ha) it was 75; in the experiment with oat, wild (250 g ai/ha), 100. Besides, the “Plant response rating, Ryegrass, Italian” value in the experiment with ryegrass, Italian (62 g ai/ha) stood at 35; with ryegrass, Italian (125 g ai/ha), 70; in the experiment on ryegrass, Italian (250 g ai/ha), 90.
In the case of `CCOc1cc(C(=O)NC(C)C)nn1Cc1ccnc(C(F)(F)F)c1` [Compound 188], the “Plant response rating, Oat, Wild” value in the experiment on oat, wild (62 g ai/ha) is given as 100; in the experiment with oat, wild (125 g ai/ha) it was 100; in the experiment with oat, wild (250 g ai/ha) it was 100. Besides, the “Plant response rating, Ryegrass, Italian” value came out at 75 with ryegrass, Italian (62 g ai/ha); 85 in the experiment on ryegrass, Italian (125 g ai/ha); 95 with ryegrass, Italian (250 g ai/ha). Moreover, the “Plant response rating, Wild Poinsettia” value stood at 60 in the experiment with wild poinsettia (Postemergence, 31 g ai/ha); 60 in the experiment with wild poinsettia (Postemergence, 125 g ai/ha); 80 in the experiment on wild poinsettia (Postemergence, 250 g ai/ha); 70 with wild poinsettia (postemergence, 62 g ai/ha); 85 in the experiment with wild poinsettia (postemergence, 500 g ai/ha).
For the compound `CCOc1cc(C(=O)NC2CC2)nn1Cc1ccnc(C(F)(F)F)c1` [Compound 189], the “Plant response rating, Oat, Wild” value in the experiment with oat, wild (62 g ai/ha) amounted to 45; in the experiment with oat, wild (125 g ai/ha) it was 75; in the experiment on oat, wild (250 g ai/ha), 100. Besides, the “Plant response rating, Pigweed” value in the experiment with pigweed (4 g ai/ha) stood at 60; with pigweed (8 g ai/ha), 60; with pigweed (16 g ai/ha), 100; in the experiment on pigweed (31 g ai/ha), 100; in the experiment on pigweed (62 g ai/ha), 100. The “Plant response rating, Surinam Grass” value in the experiment on Surinam grass (4 g ai/ha) turned out to be 0; in the experiment on Surinam grass (8 g ai/ha), 0; in the experiment with Surinam grass (16 g ai/ha) it was 25; with Surinam grass (31 g ai/ha), 80; in the experiment on Surinam grass (62 g ai/ha) it was 100. Further, the “Plant response rating, Ryegrass, Italian” value came out at 40 in the experiment with ryegrass, Italian (62 g ai/ha); 60 in the experiment on ryegrass, Italian (125 g ai/ha); 95 in the experiment with ryegrass, Italian (250 g ai/ha).
